Numbered stars: 1 amine (or outer) side, 2 acyl side, 3 side chain; on linkers, the order of the positions; unused ones are H or OH. Square brackets hold non-standard residues; d marks the D form. Side chains are listed from the residue outwards. Peptide text beside a SMILES is read from it. * marks the point of attachment. C20 diacid = O=C(O)CCCCCCCCCCCCCCCCCCC(=O)*; γGlu = O=C(O)[C@H](CCC(=O)[*:2])N[*:1]; αMeL = CC(C)C[C@](C)(N)C(=O)O; Orn = NCCC[C@H](N)C(=O)O; AEEA = NCCOCCOCC(=O)O; Aib = CC(C)(N)C(=O)O
Assays:
[1] = biological target: T1, human Gcg receptor (Homo sapiens, UniProt P47871); assay: [125I]-Glucagon binding (SPA), human Gcg receptor; conditions: read-out: hGLcgR Ki, nM (SEM, n)
T1 construct: expressed in transfected cells; crude membranes
T1 sequence (P47871 26-477): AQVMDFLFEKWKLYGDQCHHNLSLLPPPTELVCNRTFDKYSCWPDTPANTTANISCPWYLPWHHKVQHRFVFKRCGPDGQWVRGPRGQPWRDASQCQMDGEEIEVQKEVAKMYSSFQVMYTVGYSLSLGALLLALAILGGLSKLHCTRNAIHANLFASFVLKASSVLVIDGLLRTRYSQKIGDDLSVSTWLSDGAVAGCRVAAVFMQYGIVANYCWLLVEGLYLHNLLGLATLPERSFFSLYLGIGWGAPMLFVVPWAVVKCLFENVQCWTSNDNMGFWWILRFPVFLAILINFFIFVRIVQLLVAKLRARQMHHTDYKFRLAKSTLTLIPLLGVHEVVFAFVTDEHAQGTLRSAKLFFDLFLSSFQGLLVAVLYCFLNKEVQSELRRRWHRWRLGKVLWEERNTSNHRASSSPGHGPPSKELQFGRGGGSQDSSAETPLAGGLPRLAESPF
Outline: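 Cell pellets were lysed in hypotonic Tris buffer, pH 7.5, homogenized, and spun at low then high speed to give crude membranes. Ki was derived from the fitted IC50.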

[2] = biological target: T2, human GIP receptor (Homo sapiens, UniProt P48546); assay: [125I]-GIP binding (SPA), human GIP receptor; conditions: read-out: hGIPR Ki, nM (SEM, n)
T2 construct: expressed in transfected cells; crude membranes
T2 sequence (P48546 22-466): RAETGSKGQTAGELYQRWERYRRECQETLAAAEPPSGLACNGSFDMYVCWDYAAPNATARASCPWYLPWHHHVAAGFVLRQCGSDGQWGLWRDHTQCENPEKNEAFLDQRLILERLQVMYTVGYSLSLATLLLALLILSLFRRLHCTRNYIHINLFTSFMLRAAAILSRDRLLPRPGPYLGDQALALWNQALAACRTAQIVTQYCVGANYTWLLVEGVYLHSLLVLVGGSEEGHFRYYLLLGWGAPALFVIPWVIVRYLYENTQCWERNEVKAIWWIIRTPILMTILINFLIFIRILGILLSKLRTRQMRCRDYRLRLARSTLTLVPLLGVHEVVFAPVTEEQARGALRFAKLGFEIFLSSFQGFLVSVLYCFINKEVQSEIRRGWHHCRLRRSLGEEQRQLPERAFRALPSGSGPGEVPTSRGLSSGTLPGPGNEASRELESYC

[3] = biological target: human GLP-1 receptor (GLP-1R) (Homo sapiens, UniProt P43220); assay: cAMP pharmacological functional assay in presence of casein, hGLP-1R; format: cell-based; conditions: HEK293 cells expressing hGLP-1R, 0.1% Casein, geometric mean; read-out: hGLP1R cAMP Rel EC50 nM (SEM, n)
Sequence of human GLP-1 receptor (GLP-1R) (P43220 24-463): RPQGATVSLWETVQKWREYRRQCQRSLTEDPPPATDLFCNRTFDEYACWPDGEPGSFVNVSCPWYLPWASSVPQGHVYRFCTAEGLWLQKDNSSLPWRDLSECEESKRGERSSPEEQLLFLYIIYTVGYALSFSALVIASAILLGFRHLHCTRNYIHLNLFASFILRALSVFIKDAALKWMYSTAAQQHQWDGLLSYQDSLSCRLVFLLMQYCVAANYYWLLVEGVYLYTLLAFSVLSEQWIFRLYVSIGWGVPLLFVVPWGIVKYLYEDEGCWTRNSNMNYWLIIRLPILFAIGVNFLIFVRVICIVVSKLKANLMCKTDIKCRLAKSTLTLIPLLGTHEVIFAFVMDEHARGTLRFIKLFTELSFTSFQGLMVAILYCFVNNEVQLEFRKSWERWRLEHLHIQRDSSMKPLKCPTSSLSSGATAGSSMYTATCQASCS

[4] = biological target: T3, gastric inhibitory peptide receptor (GIPR) (Homo sapiens, UniProt P48546); assay: cAMP pharmacological functional assay in presence of casein, hGIPR; format: cell-based; conditions: HEK293 cells expressing hGIPR, 0.1% Casein, geometric mean; read-out: hGIPR cAMP Rel EC50 nM (SEM, n)
T3 sequence (P48546 22-466): T2 sequence (P48546 22-466)

[5] = biological target: T4, human GLP-1R (Homo sapiens, UniProt P43220); assay: [125I]-GLP-1 binding (SPA), human GLP-1 receptor; design: expressed in transfected cells; crude membranes; conditions: read-out: hGLP1R Ki, (nM) (SEM, n)
T4 sequence (P43220 24-463): as above
Outline: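 Ki values are geometric means with SEM over independent replicates on different days, derived from IC50s fitted by four-parameter nonlinear regression. The assay used crude cell membranes in HEPES buffer, pH 7.4, containing CaCl2, MgCl2, bacitracin and TWEEN-20.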

[6] = biological target: T4, human GLP-1R; assay: GLP-1R CHO cell β-arrestin recruitment assay; format: cell-based; design: host or cells: CHO-K1 PathHunter cells, assay-ready frozen; conditions: for EC50: CHO-K1 cells, PathHunter β-arrestin-2 recruitment, 0.1% casein, read-out: hGLP1R B-Arrestin2 Rel EC50 uM (SEM, n); for hGLP1R B-Arrestin2 % Top: normalized to GLP-1 maximum control
Outline: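 PathHunter CHO-K1 cells with ProLink-tagged human GLP-1R and enzyme-acceptor-tagged β-arrestin-2 treated with serially diluted peptides in assay buffer containing 0.1% hydrolyzed casein, 90 min at 37 °C.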

[7] = biological target: T4, human GLP-1R; assay: GLP-1R HEK293 cell membrane [35S]GTPγS binding assay; format: biochemical; design: expressed in transfected cells; host or cells: HEK293 cells expressing human GLP-1R; membranes; conditions: HEK293 cell membranes expressing human GLP-1R, [35S]GTPγS binding; read-out: hGLP1R GTPgS Rel EC50 nM (SEM, n)
Outline: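 Membranes from HEK293 cells expressing the receptor incubated with peptide and […] [35S]GTPγS in HEPES pH 7.4 buffer with NaCl, MgCl2, saponin and BSA, 30 min at room temperature. Gαs-bound label captured by anti-Gαs antibody/SPA beads and counted; EC50 from four-parameter logistic fit.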

CC[C@H](C)[C@H](NC(=O)[C@H](CC(C)C)NC(=O)[C@H](Cc1ccc(O)cc1)NC(=O)[C@H](CCC(=O)O)NC(=O)[C@@H](NC(=O)[C@H](Cc1ccccc1)NC(=O)[C@H](CCC(=O)O)NC(=O)C(C)(C)NC(=O)[C@H](CCC(N)=O)NC(=O)[C@H](C)NC(=O)[C@H](CCCCNC(=O)COCCOCCNC(=O)COCCOCCNC(=O)CC[C@H](NC(=O)CCCCCCCCCCCCCCCCCCC(=O)O)C(=O)O)NC(=O)[C@H](CCCN)NC(=O)[C@H](CC(=O)O)NC(=O)[C@H](CC(C)C)NC(=O)[C@](C)(CC(C)C)NC(=O)[C@@H](NC(=O)[C@H](CO)NC(=O)[C@H](Cc1ccc(O)cc1)NC(=O)[C@H](CC(=O)O)NC(=O)[C@H](CO)NC(=O)[C@@H](NC(=O)[C@H](Cc1ccccc1)NC(=O)[C@@H](NC(=O)CNC(=O)[C@H](CCC(=O)O)NC(=O)C(C)(C)NC(=O)[C@H](N)Cc1ccc(O)cc1)[C@@H](C)O)[C@@H](C)O)[C@@H](C)CC)[C@@H](C)CC)C(=O)N[C@@H](C)C(=O)NCC(=O)NCC(=O)N1CCC[C@H]1C(=O)N[C@@H](CO)C(=O)N[C@@H](CO)C(=O)NCC(=O)N[C@@H](C)C(=O)N1CCC[C@H]1C(=O)N1CCC[C@H]1C(=O)N1CCC[C@H]1C(=O)N[C@@H](CO)C(N)=O [Example 349] (H-[dY][Aib]EGTFTSDYSI[αMeL]LD[Orn]K([AEEA-AEEA-γGlu-C20 diacid])AQ[Aib]EFIEYLIAGGPSSGAPPPS-NH2)
Ki [1]: > 1060 nM
Ki [2]: 0.08 nM
EC50 [3]: 0.121 nM
EC50 [4]: 0.117 nM
Ki [5]: 1.72 nM
EC50 [6]: 0.0151 µM
hGLP1R B-Arrestin2 % Top [6]: 18.4%
EC50 [7]: 0.464 nM

CC[C@H](C)[C@H](NC(=O)[C@H](CC(C)C)NC(=O)[C@H](Cc1ccc(O)cc1)NC(=O)[C@@H](CCC(=O)O)NC(=O)[C@@H](NC(=O)[C@H](Cc1ccccc1)NC(=O)[C@H](C)NC(=O)C(C)(C)NC(=O)[C@H](CCC(N)=O)NC(=O)[C@H](C)NC(=O)[C@H](CCCCNC(=O)COCCOCCNC(=O)COCCOCCNC(=O)CC[C@H](NC(=O)CCCCCCCCCCCCCCCCCCC(=O)O)C(=O)O)NC(=O)[C@H](CCCCN)NC(=O)[C@H](CC(=O)O)NC(=O)[C@H](CC(C)C)NC(=O)[C@](C)(CC(C)C)NC(=O)[C@@H](NC(=O)[C@H](CO)NC(=O)[C@H](Cc1ccc(O)cc1)NC(=O)[C@H](CC(=O)O)NC(=O)[C@H](CO)NC(=O)[C@@H](NC(=O)[C@H](Cc1ccccc1)NC(=O)[C@@H](NC(=O)CNC(=O)[C@H](CCC(=O)O)NC(=O)C(C)(C)NC(=O)[C@H](N)Cc1ccc(O)cc1)[C@@H](C)O)[C@@H](C)O)[C@@H](C)CC)[C@@H](C)CC)C(=O)N[C@@H](C)C(=O)NCC(=O)NCC(=O)N1CCC[C@H]1C(=O)N[C@@H](CO)C(=O)N[C@@H](CO)C(=O)NCC(=O)N[C@@H](C)C(=O)N1CCC[C@H]1C(=O)N1CCC[C@H]1C(=O)N1CCC[C@H]1C(=O)N[C@@H](CO)C(N)=O [Example 352] (H-[dY][Aib]EGTFTSDYSI[αMeL]LDKK([AEEA-AEEA-γGlu-C20 diacid])AQ[Aib]AFI[dE]YLIAGGPSSGAPPPS-NH2)
Ki [1]: > 1030 nM
Ki [2]: 0.0726 nM
EC50 [3]: 0.142 nM
EC50 [4]: 0.127 nM
Ki [5]: 3.03 nM
EC50 [6]: 0.00421 µM
hGLP1R B-Arrestin2 % Top [6]: 17.4%
EC50 [7]: 0.552 nM

CC[C@H](C)[C@H](NC(=O)[C@H](CC(C)C)NC(=O)[C@H](Cc1ccc(O)cc1)NC(=O)[C@@H](CCC(=O)O)NC(=O)[C@@H](NC(=O)[C@H](Cc1ccccc1)NC(=O)[C@H](CCC(=O)O)NC(=O)C(C)(C)NC(=O)[C@H](CCC(N)=O)NC(=O)[C@H](C)NC(=O)[C@H](CCCCNC(=O)COCCOCCNC(=O)COCCOCCNC(=O)CC[C@H](NC(=O)CCCCCCCCCCCCCCCCCCC(=O)O)C(=O)O)NC(=O)[C@H](CCCN)NC(=O)[C@H](CC(=O)O)NC(=O)[C@H](CC(C)C)NC(=O)[C@](C)(CC(C)C)NC(=O)[C@@H](NC(=O)[C@H](CO)NC(=O)[C@H](Cc1ccc(O)cc1)NC(=O)[C@H](CC(=O)O)NC(=O)[C@H](CO)NC(=O)[C@@H](NC(=O)[C@H](Cc1ccccc1)NC(=O)[C@@H](NC(=O)CNC(=O)[C@H](CCC(=O)O)NC(=O)C(C)(C)NC(=O)[C@H](N)Cc1ccc(O)cc1)[C@@H](C)O)[C@@H](C)O)[C@@H](C)CC)[C@@H](C)CC)C(=O)N[C@@H](C)C(=O)NCC(=O)NCC(=O)N1CCC[C@H]1C(=O)N[C@@H](CO)C(=O)N[C@@H](CO)C(=O)NCC(=O)N[C@@H](C)C(=O)N1CCC[C@H]1C(=O)N1CCC[C@H]1C(=O)N1CCC[C@H]1C(=O)N[C@@H](CO)C(N)=O [Example 354] (H-[dY][Aib]EGTFTSDYSI[αMeL]LD[Orn]K([AEEA-AEEA-γGlu-C20 diacid])AQ[Aib]EFI[dE]YLIAGGPSSGAPPPS-NH2; N-terminus assumed)
Ki [1]: > 953 nM
Ki [2]: 0.175 nM
EC50 [3]: 0.54 nM
EC50 [4]: 0.233 nM
Ki [5]: 7.85 nM
EC50 [6]: 0.255 µM
hGLP1R B-Arrestin2 % Top [6]: 22.7%
EC50 [7]: 0.967 nM

CC[C@H](C)[C@H](NC(=O)[C@H](CC(C)C)NC(=O)[C@H](Cc1ccc(O)cc1)NC(=O)[C@H](CCC(=O)O)NC(=O)[C@@H](NC(=O)[C@H](Cc1ccccc1)NC(=O)[C@H](C)NC(=O)C(C)(C)NC(=O)[C@H](CCC(N)=O)NC(=O)[C@H](C)NC(=O)[C@H](CCCCNC(=O)COCCOCCNC(=O)COCCOCCNC(=O)CC[C@H](NC(=O)CCCCCCCCCCCCCCCCCCC(=O)O)C(=O)O)NC(=O)[C@H](CCCN)NC(=O)[C@H](CC(=O)O)NC(=O)[C@H](CC(C)C)NC(=O)[C@](C)(CC(C)C)NC(=O)[C@@H](NC(=O)[C@H](CO)NC(=O)[C@H](Cc1ccc(O)cc1)NC(=O)[C@H](CC(=O)O)NC(=O)[C@H](CO)NC(=O)[C@@H](NC(=O)[C@H](Cc1ccccc1)NC(=O)[C@@H](NC(=O)CNC(=O)[C@H](CCC(=O)O)NC(=O)C(C)(C)NC(=O)[C@H](N)Cc1ccc(O)cc1)[C@@H](C)O)[C@@H](C)O)[C@@H](C)CC)C(C)C)C(=O)N[C@@H](C)C(=O)NCC(=O)NCC(=O)N1CCC[C@H]1C(=O)N[C@@H](CO)C(=O)N[C@@H](CO)C(=O)NCC(=O)N[C@@H](C)C(=O)N1CCC[C@H]1C(=O)N1CCC[C@H]1C(=O)N1CCC[C@H]1C(=O)N[C@@H](CO)C(N)=O [Example 358] (H-[dY][Aib]EGTFTSDYSI[αMeL]LD[Orn]K([AEEA-AEEA-γGlu-C20 diacid])AQ[Aib]AFVEYLIAGGPSSGAPPPS-NH2; N-terminus assumed)
Ki [1]: 915 nM
Ki [2]: 0.0636 nM
EC50 [3]: 0.117 nM
EC50 [4]: 0.183 nM
Ki [5]: 1.37 nM
EC50 [6]: 0.00938 µM
hGLP1R B-Arrestin2 % Top [6]: 21.4%
EC50 [7]: 0.414 nM

— US12252524B2, “GIP/GLP1 co-agonist compounds” (Eli Lilly and Company, priority 2018, dated 2025)
